Legend:
human EAAT3 = molecular target: T1, human EAAT3 (Homo sapiens, UniProt P43005); assay: FLIPR Membrane Potential (FMP) assay, antagonist potency at human EAAT3; format: cell-based; settings: HEK-293 cells stably expressing human EAAT3; L-glutamate as agonist at EC80; antagonists applied 15 min before; Kb by Cheng-Prusoff from IC50
T1 construct: expressed in transfected cells; host or cells: HEK-293
T1 sequence (P43005 1-524): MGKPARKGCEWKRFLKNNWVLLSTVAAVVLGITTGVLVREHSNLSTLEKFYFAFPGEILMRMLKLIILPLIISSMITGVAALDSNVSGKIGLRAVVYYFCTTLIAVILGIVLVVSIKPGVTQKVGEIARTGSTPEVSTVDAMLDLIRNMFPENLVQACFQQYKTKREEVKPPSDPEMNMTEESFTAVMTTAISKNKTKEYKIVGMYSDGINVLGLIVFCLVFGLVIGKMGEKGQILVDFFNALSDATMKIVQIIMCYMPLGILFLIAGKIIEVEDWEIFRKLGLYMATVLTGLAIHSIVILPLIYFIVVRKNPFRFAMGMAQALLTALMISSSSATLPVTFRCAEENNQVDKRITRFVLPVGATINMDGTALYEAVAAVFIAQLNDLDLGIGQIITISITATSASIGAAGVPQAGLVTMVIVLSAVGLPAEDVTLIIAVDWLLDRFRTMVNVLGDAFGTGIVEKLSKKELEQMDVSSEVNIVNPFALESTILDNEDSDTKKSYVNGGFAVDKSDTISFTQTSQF
Protocol: The FLIPR Membrane Potential (FMP) Assay
HEK-293 cells stably expressing human EAAT3 were seeded at 55 000 cells/well in growth medium (DMEM glutamate free (Invitrogen 11960-044), 1% Pen Strep (10 ml/1 GIBCO BRL N^o 15140-023), 10% FCS non dialysed heat inactivated, 5 mg/l puromycin) in poly-D-lysine treated 96-well black microtiter plates with clear-bottom. After 24 h, the growth medium was removed and […] of Krebs buffer (140 mM NaCl, 4.7 mM KCl, 2.5 mM CaCl2, 1.2 mM MgCl2, 11 mM HEPES, 10 mM D-glucose, pH=7.4) added. The cells were then loaded by adding 100 μl/well FMP assay dye (FLIPR Membrane Potential assay reagent, Molecular Devices). The 96-well plates were then incubated at 37° C. for 1 h. The depolarization of the cells will cause more dye to enter in the cells, where it will bind to intracellular proteins and lipids and cause an increase in the fluorescence signal. Antagonist potency at human EAAT3 was determined by using L-glutamate as agonist at a concentration which gives 80% of the maximum response. The antagonists were applied 15 min before the application of the agonist L-glutamate. The assays were performed at room temperature and measurements done by using a Fluorometric Imaging Plate Reader (FLIPR, Molecular Devices) and filter #2. Responses were measured as peak increase in fluorescence minus basal (i.e. fluorescence without addition of L-glutamate). Kb was determined using the Cheng-Prusoff equation Kb=IC50/[1+(A/EC50)], where IC50 is the concentration of the antagonist producing 50% inhibition, A is the concentration of the agonist against which the IC50 is being determined (at EC80) and EC50 is the concentration of the agonist producing 50% […].

Structure (SMILES) | Kb (human EAAT3) [nM] | melting point [°C]
Cc1ccncc1-c1cc(C(=O)NC(C)(C)C2CC2)cc(-c2ccc(F)cc2)c1 [Example 23, N-(2-Cyclopropylpropan-2-yl)-3-(4-fluorophenyl)-5-(4-methylpyridin-3-yl)-benzamide] | 78 | 76
Cc1ncccc1-c1cc(C(=O)NC(C)(C)C)cc(-c2ccc(F)cc2)c1 [Example 24, N-tert-Butyl-3-(4-fluorophenyl)-5-(2-methylpyridin-3-yl)-benzamide] | 170 | 78
CC(C)c1ncncc1-c1cc(C(=O)NC(C)(C)C)cc(-c2ccc(F)c(F)c2)c1 [Example 26, N-tert-Butyl-3-(3,4-difluorophenyl)-5-(4-propan-2-ylpyrimidin-5-yl)-benzamide] | 100 | 80
CC(C)c1ncncc1-c1cc(C(=O)NC(C)(C)C)cc(-c2ccc(C(F)(F)F)cc2)c1 [Example 28, N-tert-Butyl-3-(4-propan-2-ylpyrimidin-5-yl)-5-[4-(trifluoromethyl)-phenyl]-benzamide] | 310 | 168
CC(C)c1ncncc1-c1cc(C(=O)NC(C)(C)C)cc(-c2ccc(C#N)cc2)c1 [Example 32, N-tert-Butyl-3-(4-cyanophenyl)-5-(4-propan-2-ylpyrimidin-5-yl)-benzamide] | 570 | 98
Cc1cc(-c2cc(C(=O)NC(C)(C)C#N)cc(-c3cncnc3C(C)C)c2)ccc1F [Example 35, N-(2-Cyanopropan-2-yl)-3-(4-fluoro-3-methylphenyl)-5-(4-propan-2-yl-pyrimidin-5-yl)-benzamide] | 350 | 101
CC(C)(C)NC(=O)c1cc(-c2ccc(Cl)cc2)cc(-c2cncnc2C2CC2)c1 [Example 39, N-tert-Butyl-3-(4-chlorophenyl)-5-(4-cyclopropyl-pyrimidin-5-yl)-benzamide] | 270 | 96

The next lines start with the values.

Kb (human EAAT3) [nM] | melting point [°C] | Structure (SMILES)
250 | 91 | Cc1ccc(-c2cc(C(=O)NC(C)(C)C)cc(-c3cncnc3C(C)C)c2)cc1 [Example 25, N-tert-Butyl-3-(4-methylphenyl)-5-(4-propan-2-ylpyrimidin-5-yl)-benzamide]
180 | 91.5 | CC(C)c1ncncc1-c1cc(C(=O)NC(C)(C)C)cc(-c2ccc(C3CC3)cc2)c1 [Example 27, N-tert-Butyl-3-(4-cyclopropylphenyl)-5-(4-propan-2-ylpyrimidin-5-yl)-benzamide]
720 | 83 | Cc1cc(-c2cc(C(=O)NC(C)(C)C)cc(-c3cncnc3C(C)C)c2)ccc1F [Example 29, N-tert-Butyl-3-(4-fluoro-3-methylphenyl)-5-(4-propan-2-ylpyrimidin-5-yl)-benzamide]
770 | 90 | Cc1ccc(-c2cc(C(=O)NC(C)(C)C)cc(-c3cncnc3C(C)C)c2)cc1F [Example 30, N-tert-Butyl-3-(3-fluoro-4-methylphenyl)-5-(4-propan-2-ylpyrimidin-5-yl)-benzamide]
320 | 93 | CC(C)c1ncncc1-c1cc(C(=O)NC(C)(C)C)cc(-c2ccc(Cl)c(F)c2)c1 [Example 31, N-tert-Butyl-3-(4-chloro-3-fluorophenyl)-5-(4-propan-2-ylpyrimidin-5-yl)-benzamide]
540 | 84 | COc1ccc(-c2cc(C(=O)NC(C)(C)C)cc(-c3cncnc3C(C)C)c2)cc1 [Example 33, N-tert-Butyl-3-(4-methoxyphenyl)-5-(4-propan-2-ylpyrimidin-5-yl)-benzamide]
400 | 102.5 | Cc1ccc(-c2cc(C(=O)NC(C)(C)C#N)cc(-c3cncnc3C(C)C)c2)cc1F [Example 34, N-(2-Cyanopropan-2-yl)-3-(3-fluoro-4-methylphenyl)-5-(4-propan-2-yl-pyrimidin-5-yl)-benzamide]
270 | 97 | CC(C)c1ncncc1-c1cc(C(=O)NC(C)(C)C#N)cc(-c2ccc(F)cc2)c1 [Example 36, N-(2-Cyanopropan-2-yl)-3-(4-fluorophenyl)-5-(4-propan-2-yl-pyrimidin-5-yl)-benzamide]
210 | 98 | CC(C)c1ncncc1-c1cc(C(=O)NC(C)(C)C#N)cc(-c2ccc(C(F)(F)F)cc2)c1 [Example 37, N-(2-Cyanopropan-2-yl)-3-(4-propan-2-yl-pyrimidin-5-yl)-5-[4-(trifluoromethyl)-phenyl]-benzamide]
160 | 97 | CC(C)c1ncncc1-c1cc(C(=O)NC(C)(C)C#N)cc(-c2ccc(Cl)cc2)c1 [Example 38, 3-(4-Chlorophenyl)-N-(2-cyanopropan-2-yl)-5-(4-propan-2-yl-pyrimidin-5-yl)-benzamide]
140 | 75 | CCc1ncncc1-c1cc(C(=O)NC(C)(C)C)cc(-c2ccc(Cl)cc2)c1 [Example 40, N-tert-Butyl-3-(4-chlorophenyl)-5-(4-ethyl-pyrimidin-5-yl)-benzamide]

Source: patent publication US10005736B1, “Pyridine and pyrimidine derivatives” (Hoffmann-La Roche Inc., priority 2015, dated 2018)
